Data from US20030109448A1, “Methods of promoting uptake and nuclear accumulation of polyamides in eukaryotic cells” (priority 2001, published 2003).
Entries after “also recorded” stand apart in the source; their conditions may differ.

Assays:
[1] = tested on: HCT116 human colon cancer cells; test: Intracellular distribution of fluorescent-labeled polyamides by fluorescence microscopy; format: cell-based; settings: HCT116, overnight at 37° C.
Description: Previously established low passage number human colon cancer HCT116 cells were cultured as monolayers and maintained at 37° C. in a humidified incubator with 5% CO2 in buffered medium consisting of RPMI 1640 (GIBCO, Life Technologies, Rockville, Md.) supplemented with 2 mM L-glutamine, 10% fetal bovine serum (GIBCO), 100 Units/ml Penicillin-Streptomycin and 25 μg/ml Gentamicin. Previously established low passage number human rheumatoid synovial fibroblasts (RSFs) were cultured in DMEM (GIBCO 11995-040) supplemented with 15% FBS, 1% glutamine, and 50 µg/ml Gentamycin.
HCT116 cells or RSF cells (8×10^5) were plated on 25-mm round glass coverslips in 30-mm wells and incubated for 24 hr to allow cells to adhere. […]
Live wet mounted cells were examined and photographed using an Olympus AX70 Microscope equipped with fluorescence optics and a Sony 3CCD color video camera. DAPI was detected using a bandpass 405±20 nm excitation filter, a 420 nm dichroic beam splitter, and a ≧450 emission filter (DAPI filter set). BODIPY and fluorescein conjugated polyamides were selectively detected using a bandpass 485±11 nm excitation filter, a 505 nm dichroic beam splitter, and a 530±15 nm emission filter (fluorescein filter set). Organelle-specific probes were detected using a 546+/−5 nm excitation filter, a 570 nm dichroic beam splitter and a 590 nm longpass emission filter (Rhodamine filter set). […]

[2] = tested on: RSF cells; test: Effect of P-gp inhibitors on intracellular distribution of Compound 1; format: cell-based, human

| Molecule | fluorescent-filled vesicles [1] | nuclear fluorescence (nuclear localization) [1] | effect on intracellular distribution of Compound 1 [2] | location of Compound 1 green fluorescence in presence of inhibitor [2] |
| --- | --- | --- | --- | --- |
| Im-Im-Py-Py-γ-Py-Py-Py-Py-β-Ta-FITC [Compound 2] | absent | nuclei are brightly stained; also recorded: observed in the nuclei of the cells | – | – |
| COc1ccc(CCN(C)CCCC(C#N)(c2ccc(OC)c(OC)c2)C(C)C)cc1OC (stereo not shown) [verapamil] | – | – | dramatic reduction in cytoplasmic fluorescence accompanied by a re-distribution of Compound 1 to the nucleus | observed in the nuclei in the presence of verapamil |
